{"source": "patent US8211660B2", "about": "“In-vivo monitoring of circulating apoptotic cells” (The General Hospital Corporation, priority 2004, dated 2012)", "system": "MatLyLu mouse prostate cancer cells", "assay": "Apoptosis of camptothecin-pretreated MatLyLu cells verified by conventional flow cytometry (FITC-annexin V / propidium iodide)", "format": "cell-based", "details": "MatLyLu cells pretreated with camptothecin", "method": "MatLyLu […] prostate cancer cells pretreated with camptothecin were employed as a positive control. It was verified by conventional flow cytometry that more than about 80% of the camptothecin-treated cells undergo apoptosis (i.e. >80% of the treated cells were FITC-annexin V^+ positive and propidium iodide negative). The camptothecin-treated cells were then labeled with the AF647-conjugated annexin-V and injected intravenously into the mouse. The circulating annexin-V^+ cells were measured by focusing a He—Ne laser beam having a wavelength of 633 nm through a slit onto an ear vessel (typically a small artery) and confocally detecting the fluorescent bursts (peaks) as individual cells flowed through the probe beam. The emitted fluorescence was detected by a photomultiplier tube and was digitized for analysis. The confocal detection of the emitted fluorescence allowed continuous monitoring over the measurement period of the labeled cells flowing through the vessel."}
{"compound": "CC[C@@]1(O)C(=O)OCc2c1cc1n(c2=O)Cc2cc3ccccc3nc2-1", "note": "[camptothecin]", "values": [{"measurement": "treated cells undergoing apoptosis (FITC-annexin V positive and propidium iodide negative)", "result": "more than 80%"}]}
